Measured values published in patent publication US5821363A, “Antineoplastic use and pharmaceutical compositions containing them” (priority 1996, dated 1998).
Values after ≈ are worked out from the molar mass of the structure shown. Read-outs that look alike come from different tables or passages of the source.

How the values were obtained:
Type in all cases: cell-based
[1] = system: L1210 mouse leukemia carcinoma cells; test: cytotoxicity / inhibition of cell proliferation in L1210 leukemia cells; conditions: for IC90: L1210, read-out: IC90 (90% growth inhibitory concentration)
[2] = system: KB-3-1; test: killing of drug sensitive (non-MDR) KB-3-1 cells; conditions: Homo sapiens
[3] = system: KB-V1; test: killing of multidrug resistant KB-V1 cells; conditions: for IC50: Homo sapiens
[4] = system: A2780 human ovarian carcinoma; test: cytotoxicity in A2780 human ovarian carcinoma cells
[5] = L1210, read-out: L1210 (IC50 μg/ml)
[6] = L1210 leukemia, Table I, 50% inhibition of cell proliferation vs untreated control, read-out: L1210 (IC50 μg/ml)
[7] = KB-3-1 drug sensitive cells, Table III, read-out: KB-3-1 (IC50; nM)
[8] = KB-V1 multidrug resistant cells, Table III, read-out: KB-V1 (IC50; nM)
[9] = ratio of IC50 KB-V1 to IC50 KB-3-1
[10] = KB 3-1, read-out: KB-3-1 (IC50; nM)
[11] = KB-V1, read-out: KB-V1 (IC50; nM)
[12] = Homo sapiens, A2780, read-out: A2780 (IC50 μg/ml)
[13] = A2780 human ovarian carcinoma, Table II, read-out: A2780 (IC50 μg/ml)

CC[Si](CC)(CC)O[C@H]1C[C@H]2OC[C@@]2(OC(C)=O)[C@H]2[C@H](OC(=O)c3ccccc3)[C@]3(O)CC(OC(=O)[C@H](O)[C@@H](NC(=O)OC(C)(C)C)c4ccccc4)=C(C)[C@H]([C@@H](OC(C)=O)C(=O)[C@]12C)C3(C)C [Compound 6, 7-TES-13-(N-Boc-β-phenylisoserinyl)-Δ^12,13-iso-baccatin III]
IC50 [1, 5]: > 0.1 µg/mL

CC(=O)O[C@H]1C(=O)[C@@]2(C)[C@H]([C@H](OC(=O)c3ccccc3)[C@]3(O)CC(OC(=O)[C@H](O)[C@@H](NC(=O)OC(C)(C)C)c4ccccc4)=C(C)[C@H]1C3(C)C)[C@]1(OC(C)=O)CO[C@@H]1C[C@@H]2O [Compound 7, 13-(N-Boc-β-phenylisoserinyl)-Δ^12,13-iso-baccatin III]
IC50 [1, 6]: 0.0046 µg/mL (≈ 5.41 nM)
IC50 [2, 7]: 0.2 nM
IC50 [3, 8]: 40 nM
Ratio: KBV-1/KB-3-1 [3, 9]: 228

CC(=O)O[C@@]12CO[C@@H]1C[C@H](O)[C@@]1(C)C(=O)[C@H](O)[C@H]3C(C)=C(OC(=O)[C@H](O)[C@@H](NC(=O)OC(C)(C)C)c4ccccc4)C[C@@](O)([C@@H](OC(=O)c4ccccc4)[C@H]21)C3(C)C [Compound 8, 10-deacetyl-13-(N-Boc-β-phenylisoserinyl)-Δ^12,13-iso-baccatin III]
IC50 [1, 6]: 0.0059 µg/mL (≈ 7.3 nM)

CC(=O)O[C@H]1C(=O)[C@]2(C)[C@@H](OC(=O)OCC(Cl)(Cl)Cl)C[C@H]3OC[C@@]3(OC(C)=O)[C@H]2[C@H](OC(=O)c2ccccc2)[C@]2(O)CC(OC(=O)[C@H](O)[C@@H](NC(=O)OC(C)(C)C)c3ccccc3)=C(C)[C@H]1C2(C)C [Compound 12, 7-Troc-13-(N-Boc-β-phenylisoserinyl)-Δ^12,13-iso-baccatin III]
IC50 [1, 5]: 0.011 µg/mL (≈ 10.7 nM)

CC(=O)O[C@H]1C(=O)[C@]23C[C@H]2C[C@H]2OC[C@@]2(OC(C)=O)[C@H]3[C@H](OC(=O)c2ccccc2)[C@]2(O)CC(OC(=O)[C@H](OC(=O)OCC(Cl)(Cl)Cl)[C@@H](NC(=O)OC(C)(C)C)c3ccccc3)=C(C)[C@H]1C2(C)C [Compound 14, 2'-Troc-13-(N-Boc-β-phenylisoserinyl)-7-deoxy-7b,8b-methano-Δ^12,13-iso-baccatin III]
IC50 [1, 5]: 0.012 µg/mL (≈ 11.9 nM)

CC(=O)O[C@H]1C(=O)[C@]2(C)C=C[C@H]3OC[C@@]3(OC(C)=O)[C@H]2[C@H](OC(=O)c2ccccc2)[C@]2(O)CC(OC(=O)[C@H](OC(=O)OCC(Cl)(Cl)Cl)[C@@H](NC(=O)OC(C)(C)C)c3ccccc3)=C(C)[C@H]1C2(C)C [Compound 15, 2'-Troc-13-(N-Boc-β-phenylisoserinyl)-7-deoxy-Δ^6,7 -Δ^12,13-iso-baccatin III]
IC50 [1, 5]: 0.0066 µg/mL (≈ 6.55 nM)

CC(=O)O[C@H]1C(=O)[C@]2(C)C(F)C[C@H]3OC[C@@]3(OC(C)=O)[C@H]2[C@H](OC(=O)c2ccccc2)[C@]2(O)CC(OC(=O)[C@H](O)[C@@H](NC(=O)OC(C)(C)C)c3ccccc3)=C(C)[C@H]1C2(C)C (stereo partly drawn) [Compound 16, 13-(N-Boc-β-phenylisoserinyl)-7-deoxy-7-fluoro-Δ^12,13-iso-baccatin III]
IC50 [1, 5]: 0.0029 µg/mL (≈ 3.4 nM)

CC(=O)O[C@H]1C(=O)[C@]23C[C@H]2C[C@H]2OC[C@@]2(OC(C)=O)[C@H]3[C@H](OC(=O)c2ccccc2)[C@]2(O)CC(OC(=O)[C@H](O)[C@@H](NC(=O)OC(C)(C)C)c3ccccc3)=C(C)[C@H]1C2(C)C [Compound 17, 13-(N-Boc-β-phenylisoserinyl)-7-deoxy-7β,8β-methano-Δ^12,13-iso-baccatin III]
IC90 [1]: 17 ng/mL (≈ 20.4 nM)
IC50 [1, 5]: 0.0018 µg/mL (≈ 2.16 nM)
IC50 [2, 10]: 0.22 nM
IC50 [3, 11]: 13 nM
Ratio: KBV-1/KB-3-1 ([3]; human, kb-v1 vs kb-3-1 cells): 61

CC(=O)O[C@H]1C(=O)[C@]2(C)C=C[C@H]3OC[C@@]3(OC(C)=O)[C@H]2[C@H](OC(=O)c2ccccc2)[C@]2(O)CC(OC(=O)[C@H](O)[C@@H](NC(=O)OC(C)(C)C)c3ccccc3)=C(C)[C@H]1C2(C)C [Compound 18, 13-(N-Boc-β-phenylisoserinyl)-7-deoxy-Δ^6,7 -Δ^12,13-iso-baccatin III]
IC50 [1, 5]: 0.0022 µg/mL (≈ 2.64 nM)
IC50 [2, 10]: 0.2 nM
IC50 [3, 11]: 6.2 nM
Ratio: KBV-1/KB-3-1 ([3]; human, kb-v1 vs kb-3-1 cells): 34

CC[Si](CC)(CC)O[C@H]1C[C@H]2OC[C@@]2(OC(C)=O)[C@H]2[C@H](OC(=O)c3ccccc3)[C@]3(O)CC(OC(=O)[C@H](O)[C@@H](NC(=O)NC(C)(C)C)c4ccccc4)=C(C)[C@H]([C@@H](OC(C)=O)C(=O)[C@]12C)C3(C)C [Compound 32a, 7-TES-13-(N-(t-butylaminocarbonyl)-β-phenylisoserinyl)-Δ^12,13-iso-baccatin III]
IC50 [1, 5]: 0.07 µg/mL (≈ 72.7 nM)

CC(=O)O[C@H]1C(=O)[C@@]2(C)[C@H]([C@H](OC(=O)c3ccccc3)[C@]3(O)CC(OC(=O)[C@H](O)[C@@H](NC(=O)NC(C)(C)C)c4ccccc4)=C(C)[C@H]1C3(C)C)[C@]1(OC(C)=O)CO[C@@H]1C[C@@H]2O [Compound 32b, 13-(N-(t-butylaminocarbonyl)-β-phenylisoserinyl)-Δ^12,13-iso-baccatin III]
IC50 [1, 6]: 0.0053 µg/mL (≈ 6.24 nM)
IC50 [2, 7]: 0.081 nM
IC50 [3, 8]: 1100 nM
Ratio: KBV-1/KB-3-1 [3, 9]: 17,650

CC(=O)O[C@H]1C(=O)[C@]23C[C@H]2C[C@H]2OC[C@@]2(OC(C)=O)[C@H]3[C@H](OC(=O)c2ccccc2)[C@]2(O)CC(OC(=O)[C@H](O)[C@@H](NC(=O)NC(C)(C)C)c3ccccc3)=C(C)[C@H]1C2(C)C [Compound 36, 13-(N-(t-butylaminocarbonyl)-β-phenylisoserinyl)-7-deoxy-7β,8β-methano-Δ^12,13-iso-baccatin III]
IC50 [2, 7]: 0.05 nM
IC50 [3, 8]: 360 nM
Ratio: KBV-1/KB-3-1 [3, 9]: 11,400

CC(=O)O[C@H]1C(=O)[C@]2(C)C=C[C@H]3OC[C@@]3(OC(C)=O)[C@H]2[C@H](OC(=O)c2ccccc2)[C@]2(O)CC(OC(=O)[C@H](O)[C@@H](NC(=O)NC(C)(C)C)c3ccccc3)=C(C)[C@H]1C2(C)C [Compound 38, 13-(N-(t-butylaminocarbonyl)-β-phenylisoserinyl)-7-deoxy-Δ^6,7 -Δ^12,13-iso-baccatin III]
IC50 [2, 10]: 0.078 nM
IC50 [3, 11]: 360 nM
Ratio: KBV-1/KB-3-1 ([3]; human, kb-v1 vs kb-3-1 cells): 4,800

CCOCO[C@H]1C[C@H]2OC[C@@]2(OC(C)=O)[C@H]2[C@H](OC(=O)c3ccccc3)[C@]3(O)CC(OC(=O)[C@H](O)[C@@H](NC(=O)OC(C)(C)C)c4ccccc4)=C(C)[C@H]([C@@H](OC(C)=O)C(=O)[C@]12C)C3(C)C [Compound 41, 7-(O-ethoxymethyl)-13-(N-Boc-β-phenylisoserinyl)-Δ^12,13-iso-baccatin III]
IC50 [1, 6]: 0.0007 µg/mL (≈ 0.771 nM)
IC50 [2, 7]: 0.011 nM
IC50 [3, 8]: 0.77 nM
Ratio: KBV-1/KB-3-1 [3, 9]: 170

CCOCO[C@H]1C[C@H]2OC[C@@]2(OC(C)=O)[C@H]2[C@H](OC(=O)c3ccccc3)[C@]3(O)CC(OC(=O)[C@H](O)[C@@H](NC(=O)NC(C)(C)C)c4ccccc4)=C(C)[C@H]([C@@H](OC(C)=O)C(=O)[C@]12C)C3(C)C [Compound 43, 7-(O-ethoxymethyl)-13-(N-(t-butylaminocarbonyl)-β-phenylisoserinyl)-Δ^12,13-iso-baccatin III]
IC50 [1, 6]: 0.0014 µg/mL (≈ 1.54 nM)
IC50 [3, 8]: 120 nM
Ratio: KBV-1/KB-3-1 [3, 9]: 2.5 × 10^5

COCO[C@H]1C[C@H]2OC[C@@]2(OC(C)=O)[C@H]2[C@H](OC(=O)c3ccccc3)[C@]3(O)CC(OC(=O)[C@H](O)[C@@H](NC(=O)OCc4ccccc4)c4ccccc4)=C(C)[C@H]([C@@H](OC(C)=O)C(=O)[C@]12C)C3(C)C [Compound 64, 7-(O-methoxymethyl)-13-(N-Cbz-β-phenylisoserinyl)-Δ^12,13-iso-baccatin III]
IC50 [4, 12]: 0.0029 µg/mL (≈ 3.13 nM)

COCO[C@H]1C[C@H]2OC[C@@]2(OC(C)=O)[C@H]2[C@H](OC(=O)c3ccccc3)[C@]3(O)CC(OC(=O)[C@H](O)[C@@H](NC(=O)OC(C)(C)C)c4ccccc4)=C(C)[C@H]([C@@H](OC(C)=O)C(=O)[C@]12C)C3(C)C [Compound 66, 7-(O-methoxymethyl)-13-(N-Boc-β-phenylisoserinyl)-Δ^12,13-iso-baccatin III]
IC50 [4, 13]: 0.00026 µg/mL (≈ 0.291 nM)
IC50 [3, 8]: 0.046 nM
Ratio: KBV-1/KB-3-1 [3, 9]: 300

COCO[C@H]1C[C@H]2OC[C@@]2(OC(C)=O)[C@H]2[C@H](OC(=O)c3ccccc3)[C@]3(O)CC(OC(=O)[C@H](O)[C@@H](NC(=O)NC(C)(C)C)c4ccccc4)=C(C)[C@H]([C@@H](OC(C)=O)C(=O)[C@]12C)C3(C)C [Compound 67, 7-(O-methoxymethyl)-13-(N-t-butylaminocarbonyl-β-phenylisoserinyl)-Δ^12,13-iso-baccatin III]
IC50 [4, 12]: 0.00042 µg/mL (≈ 0.47 nM)

CSCO[C@H]1C[C@H]2OC[C@@]2(OC(C)=O)[C@H]2[C@H](OC(=O)c3ccccc3)[C@]3(O)CC(OC(=O)[C@H](O)[C@@H](NC(=O)NC(C)(C)C)c4ccccc4)=C(C)[C@H]([C@@H](OC(C)=O)C(=O)[C@]12C)C3(C)C [Compound 72, 7-(O-methylthiomethyl)-13-(N-t-butylaminocarbonyl-β-phenylisoserinyl)-Δ^12,13-iso-baccatin III]
IC50 [4, 12]: 0.0004 µg/mL (≈ 0.44 nM)

CO[C@H]1C[C@H]2OC[C@@]2(OC(C)=O)[C@H]2[C@H](OC(=O)c3ccccc3)[C@]3(O)CC(OC(=O)[C@H](O)[C@@H](NC(=O)NC(C)(C)C)c4ccccc4)=C(C)[C@H]([C@@H](OC(C)=O)C(=O)[C@]12C)C3(C)C [Compound 73, 7-(O-methyl)-13-(N-t-butylaminocarbonyl-β-phenylisoserinyl)-Δ^12,13-iso-baccatin III]
IC50 [4, 13]: 0.00039 µg/mL (≈ 0.452 nM)

CC(=O)O[C@H]1C(=O)[C@@]2(C)[C@H]([C@H](OC(=O)c3ccccc3)[C@]3(O)C[C@H](OC(=O)[C@H](O)[C@@H](NC(=O)c4ccccc4)c4ccccc4)C(C)=C1C3(C)C)[C@]1(OC(C)=O)CO[C@@H]1C[C@@H]2O [taxol, reference compound]
IC50 [4, 12]: 0.002 to 0.003 µg/mL (≈ 2.34 to 3.51 nM)
IC90 [1]: 18 ng/mL (≈ 21.1 nM)
IC50 [1, 5]: 0.017 µg/mL (≈ 19.9 nM)
IC50 [2, 10]: 1.3 nM
IC50 [3, 11]: 15000 nM
Ratio: KBV-1/KB-3-1 ([3]; human, kb-v1 vs kb-3-1 cells): 11,538
average ratio (IC50 KB-V1/IC50 KB-3-1) ([3]; human, kb-v1 vs kb-3-1 cells): 7,570
